A word on the pIC50: it is the IC50 on a negative log10 scale, so that one unit is a factor of ten.

Experimental findings from patent publication US4536505A, “Certain N-(pyridyl) indoles” (Ciba-Geigy Corporation, priority 1983, dated 1985) are described below.

In one assay the target is T1, thromboxane synthetase (Homo sapiens, UniProt P24557).
T1 construct: crude microsomal preparation of thromboxane synthetase from lysed human platelets; from tissue; host or cells: lysed human platelets, crude microsomal preparation
T1 sequence (P24557 1-533): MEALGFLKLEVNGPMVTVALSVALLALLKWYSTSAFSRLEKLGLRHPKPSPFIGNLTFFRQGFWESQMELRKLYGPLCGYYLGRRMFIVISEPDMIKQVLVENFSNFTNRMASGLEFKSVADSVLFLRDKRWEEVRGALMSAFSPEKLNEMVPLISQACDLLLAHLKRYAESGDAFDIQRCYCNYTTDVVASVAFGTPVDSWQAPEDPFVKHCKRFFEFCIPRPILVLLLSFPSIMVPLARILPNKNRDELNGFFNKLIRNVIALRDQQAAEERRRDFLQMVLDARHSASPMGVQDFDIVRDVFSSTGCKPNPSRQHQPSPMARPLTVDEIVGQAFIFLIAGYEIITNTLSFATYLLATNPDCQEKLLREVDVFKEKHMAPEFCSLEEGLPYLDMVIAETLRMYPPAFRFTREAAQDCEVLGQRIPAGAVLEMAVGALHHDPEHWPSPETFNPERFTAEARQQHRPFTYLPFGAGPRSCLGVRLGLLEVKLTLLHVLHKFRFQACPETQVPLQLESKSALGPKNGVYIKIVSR
Put plainly: in vitro inhibition of the thromboxane synthetase enzyme. It is filed as biochemical, human (lysed human platelets). The note with it: 30 minutes incubation; ratio T×B2/PGF2 α+β reduced to 50% of control. How it is done:
Res. Comm. 74, 1432 (1977); the testing procedure is as follows: ^14 C-Arachidonic acid is incubated with an enzyme consisting of solubilized and partially purified prostaglandin cyclo-oxygenase from sheep seminal vesicles and a crude microsomal preparation of thromboxane synthetase from lysed human platelets. The test compound (dissolved in buffer, or if necessary, in a small amount of ethanol) is added to the incubation medium. At the end of the incubation period (30 minutes), Prostaglandin E2 (PGE2) is reduced to a mixture of Prostaglandin F2 α and F2 β (PGF2 α+β) by addition of sodium borohydride. The radioactive products and excess substrate are extracted into ethyl acetate; the extract is evaporated to dryness; the residue is dissolved in acetone, spotted on thin-layer plates and chromatographed in the solvent system toluene:acetone:glacial acetic acid (100 volumes:100 volumes:3 volumes). The radioactive zones are located; those corresponding to Thromboxane B2 (T×B2) and PGF2 α+β are transferred to liquid scintillation vials and counted. The ratio of counts for T×B2 /PGF2 α+β is calculated for each concentration of test compound and IC50 values are determined graphically as the concentration of test compound at which the ratio of T×B2 /PGF2 α+β is reduced to 50% of the control value.

For another assay, the system named is thromboxane B2. Put plainly: in vivo reduction of plasma levels of thromboxane (thromboxane B2) in rats after ionophore A23187. The settings on record: rat, oral dose of 0.04 mg/kg or lower. The protocol:
(§1) The inhibition of the synthesis and the reduction of plasma levels of thromboxane is determined in vivo on administration to rats in the following manner (as adapted from the procedures described by Tai et al. in Anal. Biochem. 87:343, 1978 and by Salmon in Prostaglandins 15:383, 1978):
(§2) Rats are dosed with vehicle or test drug and injected intravenously with ionophore A23187 (0.5 mg/kg) two hours later. Blood is collected for analysis 2 minutes after the ionophore injection. A single aliquot of each plasma sample is assayed for thromboxane B2 and another aliquot for 6-keto-PGF1 α, the stable metabolites of thromboxane A2 and prostacyclin (PGI2) respectively, by radioimmunoassay.

A further assay can be described thus: bleeding time in the rat. The note with it: about 1.0 mg/kg p.o. It is filed as in vivo. The source says: Indicative of the utility in thromboembolism, compounds of this invention also prolong bleeding time in the rat.
A further assay has as its system prostacyclin. Description: in vivo plasma level of prostacyclin (6-keto-PGF1 α) in rats after ionophore A23187. The settings on record: rat, oral dose of 0.04 mg/kg or lower. The protocol: as §1, §2
In assay [1] the target is T2, prostaglandin cyclooxygenase (Ovis aries, UniProt P05979).
T2 construct: Lyophilized sheep seminal vesicle microsomes are utilized as the prostaglandin-synthesizing enzyme preparation; from tissue; host or cells: lyophilized sheep seminal vesicle microsomes
T2 sequence (P05979 25-600): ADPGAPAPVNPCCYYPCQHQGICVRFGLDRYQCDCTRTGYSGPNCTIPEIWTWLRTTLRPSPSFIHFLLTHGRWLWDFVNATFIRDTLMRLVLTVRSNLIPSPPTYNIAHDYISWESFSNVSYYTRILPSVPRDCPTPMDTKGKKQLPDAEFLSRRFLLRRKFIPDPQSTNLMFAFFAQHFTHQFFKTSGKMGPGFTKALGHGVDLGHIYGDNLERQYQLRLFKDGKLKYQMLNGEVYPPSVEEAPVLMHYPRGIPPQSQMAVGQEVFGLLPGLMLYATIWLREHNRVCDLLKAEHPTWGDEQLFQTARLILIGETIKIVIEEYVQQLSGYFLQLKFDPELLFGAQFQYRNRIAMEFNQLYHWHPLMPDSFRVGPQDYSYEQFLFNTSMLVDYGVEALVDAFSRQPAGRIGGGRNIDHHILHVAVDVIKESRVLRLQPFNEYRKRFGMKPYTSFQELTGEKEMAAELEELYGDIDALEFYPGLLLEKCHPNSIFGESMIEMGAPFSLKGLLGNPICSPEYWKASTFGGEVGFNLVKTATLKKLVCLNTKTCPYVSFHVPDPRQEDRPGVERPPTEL
Put plainly: in-vitro effect on prostaglandin cyclooxygenase. It is filed as biochemical, sheep (seminal vesicle microsomes). The note with it: 50% reduction in the amount of PGE2 synthesized; read-out: IC50 for cyclooxygenase inhibition. How it is done:
The in-vitro effect on prostaglandin cyclooxygenase is measured by a modification of the method of Takeguchi et al. described in Biochemistry 10, 2372 (1971); the testing procedure is as follows:
Lyophilized sheep seminal vesicle microsomes are utilized as the prostaglandin-synthesizing enzyme preparation. The conversion of ^14 C-arachidonic acid to PGE2 is measured. Test compounds (dissolved in buffer, or if necessary, in a small amount of ethanol) are added to the incubation mixture. The prostaglandins are extracted and separated by thin-layer chromatography; the plates are scanned, the radioactive zones corresponding to PGE2 are transferred to liquid scintillation vials and counted for radioactivity. IC50 values for inhibition are determined graphically as the concentration of test compound causing a 50% reduction in the amount of PGE2 synthesized.

The next assay deals with T3, lipoxygenase (Cavia porcellus, UniProt A0A286X958).
T3 construct: Guinea pig peritoneal neutrophils; endogenous in cells; host or cells: guinea pig peritoneal neutrophils (elicited with sodium caseinate)
T3 sequence (A0A286X958 1-674): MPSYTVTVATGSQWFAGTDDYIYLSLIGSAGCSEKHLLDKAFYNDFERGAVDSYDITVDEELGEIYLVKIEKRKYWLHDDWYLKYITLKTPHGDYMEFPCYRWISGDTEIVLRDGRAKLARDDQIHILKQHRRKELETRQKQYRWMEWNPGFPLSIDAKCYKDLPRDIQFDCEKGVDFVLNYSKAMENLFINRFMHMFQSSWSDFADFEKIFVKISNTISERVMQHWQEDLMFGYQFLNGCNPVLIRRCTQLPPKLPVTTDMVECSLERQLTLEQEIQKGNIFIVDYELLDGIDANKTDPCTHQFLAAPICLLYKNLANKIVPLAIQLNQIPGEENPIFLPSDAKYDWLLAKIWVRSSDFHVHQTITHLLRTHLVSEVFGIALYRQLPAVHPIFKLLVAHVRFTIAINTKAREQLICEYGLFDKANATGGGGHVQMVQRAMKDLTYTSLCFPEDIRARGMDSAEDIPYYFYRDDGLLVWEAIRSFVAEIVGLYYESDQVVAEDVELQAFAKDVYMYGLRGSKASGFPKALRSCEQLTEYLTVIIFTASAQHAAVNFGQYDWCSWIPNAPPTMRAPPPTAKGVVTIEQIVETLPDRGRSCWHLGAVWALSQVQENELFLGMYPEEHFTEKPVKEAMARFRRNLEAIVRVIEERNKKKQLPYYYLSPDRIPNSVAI
Put plainly: lipoxygenase inhibition in guinea pig peritoneal neutrophils. It is filed as cell-based. The settings on record: 14C-arachidonic acid (4 μM), A-23187 (2 μM), 37° C.; LTB4 and 5-HETE. How it is done:
Guinea pig peritoneal neutrophils (elicited by an i.p. injection of sodium caseinate 17 hours prior to harvesting) are preincubated with indomethacin (1 μM) and test drugs for 5 minutes at 37° C. ^14 C-arachidonic acid (4 μM) and calcium ionophore A-23187 (2 μM) are added and the samples are incubated for another 5 minutes at 37° C. The reaction is terminated by the addition of 1N HCl and the products are extracted with ethyl acetate and separated by thin-layer chromatography; the plates are scanned and the radioactive zones corresponding to LTB4 and 5-HETE are scraped off, transferred to liquid scintillation vials and counted for radioactivity.

pIC50: −log10 of the molar value.

Turning to `O=C(O)CCCCCc1cn(-c2cccnc2)c2ccccc12` [3-(5-carboxypentyl)-N-(3-pyridyl)indole], the pIC50 at thromboxane synthetase was roughly 8.40.
For the compound `O=C(O)CCCCc1cn(-c2cccnc2)c2ccccc12` [3-(4-carboxybutyl)-N-(3-pyridyl)indole], the “decrease of plasma concentration of thromboxane B2” value with thromboxane B2 is “over 50%”. In the assay “bleeding time in the rat”, the “prolongation of bleeding time” value is given as “prolongs bleeding time”. Moreover, the “increase in the plasma level of prostacyclin” value with prostacyclin is “approximately 5 fold”. In addition, the values for the pIC50 (in assay [1]; on thromboxane synthetase) were less than 3.00 and roughly 8.96, respectively.
Turning to `O=C(O)CCCCc1cn(-c2cccnc2)c2ccc(Cl)cc12` [3-(4-carboxybutyl)-5-chloro-N-(3-pyridyl)indole], the pIC50 is roughly 8.59 at thromboxane synthetase and roughly 4.52 against lipoxygenase.
